Measurements published in the supplement of paper PMC11061612.

Tests used:
Test in all cases: combination Emax (second highest fraction inhibited in the dose matrix, 72 h); higher = more inhibition; extreme values may be limits of the assay
[1] = tested on: EW-22 (Ewing's Sarcoma)
In short: (§1)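 Bliss excess equals the observed combination effect minus the expected value EA + EB − EA·EB, where EA and EB are the effects of each agent alone. Combination Emax is the second-highest inhibition within the matrix. Inhibition was scaled from CellTiter-Glo 2.0 luminescence, with 0 set by vehicle wells and 1 by blank wells, after 72 hours of two-drug dosing of cells plated in 1536-well plates.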

[2] = tested on: SW48 (Colorectal Carcinoma)
In short: as §1

[3] = tested on: PA-TU-8902 (Pancreatic Carcinoma)
In short: as §1

[4] = tested on: TYK-nu (Ovarian Carcinoma)
In short: as §1

[5] = tested on: SNG-M (Endometrial Carcinoma)
In short: as §1

[6] = tested on: GDM-1 (Acute Myeloid Leukemia)
In short: as §1

[7] = tested on: EFM-192A (Breast Carcinoma)
In short: as §1

[8] = tested on: H4 (Low Grade Glioma)
In short: as §1

[9] = tested on: CS1 (Chondrosarcoma)
In short: as §1

[10] = tested on: 647-V (Bladder Carcinoma)
In short: as §1

[11] = tested on: HuO9 (Osteosarcoma)
In short: as §1

[12] = tested on: WSU-DLCL2 (B-Cell Non-Hodgkin's Lymphoma)
In short: as §1

[13] = tested on: A172 (Glioblastoma)
In short: as §1

[14] = tested on: BICR78 (Oral Cavity Carcinoma)
In short: as §1

[15] = tested on: MCF7 (Breast Carcinoma)
In short: as §1

[16] = tested on: NOMO-1 (Acute Myeloid Leukemia)
In short: as §1

[17] = tested on: NCI-H1688 (Small Cell Lung Carcinoma)
In short: as §1

[18] = tested on: U-118-MG (Low Grade Glioma)
In short: as §1

[19] = tested on: SK-LMS-1 (Other Solid Carcinomas)
In short: as §1

[20] = tested on: JHH-6 (Hepatocellular Carcinoma)
In short: as §1

Row | Compound | combination Emax [1] | combination Emax [2] | combination Emax [3] | combination Emax [4] | combination Emax [5] | combination Emax [6] | combination Emax [7] | combination Emax [8] | combination Emax [9] | combination Emax [10] | combination Emax [11] | combination Emax [12] | combination Emax [13] | combination Emax [14] | combination Emax [15] | combination Emax [16] | combination Emax [17] | combination Emax [18] | combination Emax [19] | combination Emax [20]
1 | Cc1c2c(nn1C)CSCc1cc(n(C)n1)CSc1cc(c3ccccc3c1)OCCCc1c(C(=O)O)n(C)c3c-2c(Cl)ccc13 [AZD5991] + CCN(CCO)CCCOc1ccc2c(Nc3cc(CC(=O)Nc4cccc(F)c4)[nH]n3)ncnc2c1 [AZD2811] (first compound max 1 µM, 7x7, partner max 1 µM) | 0.88 | 0.984 | 0.212 | 0.534 | 0.345 | 0.949 | 0.699 | 0.586 | 0.315 | 0.834 | 0.991 | 1 | 0.474 | 0.304 | 0.692 | 0.93 | 0.314 | 0.342 | 0.272 | 0.257
2 | COc1nnc2ccc(N3CCC(c4ccc(OCCN5CCN(C)C(=O)[C@H]5C)cc4)CC3)nn12 [AZD5153] + Cn1cnc2c(F)c(Nc3ccc(Br)cc3Cl)c(C(=O)NOCCO)cc21 [Selumetinib] (first compound max 1 µM, 7x7, partner max 10 µM) | 0.517 | 0.786 | 0.527 | 0.755 | 0.632 | 0.823 | 0.304 | 0.699 | 0.469 | 0.61 | 0.706 | 0.963 | 0.511 | 0.548 | 0.704 | 1 | 0.384 | 0.362 | 0.666 | 0.507
3 | NC1(C(=O)N[C@@H](CCO)c2ccc(Cl)cc2)CCN(c2ncnc3[nH]ccc23)CC1 [Capivasertib] + Cn1cnc2c(F)c(Nc3ccc(Br)cc3Cl)c(C(=O)NOCCO)cc21 [Selumetinib] (first compound max 10 µM, 7x7, partner max 10 µM) | 0.543 | 0.556 | 0.557 | 0.667 | 0.648 | 0.73 | 0.436 | 0.61 | 0.502 | 0.3 | 0.509 | 1 | 0.48 | 0.548 | 0.519 | 0.948 | 0.372 | 0.663 | 0.668 | 0.458
4 | CN(CCO)CC[C@H](CSc1ccccc1)Nc1ccc(S(=O)(=O)NC(=O)c2ccc(N3CCC([C@@H](O)c4ccccc4-c4ccc(Cl)cc4)CC3)cc2)cc1S(=O)(=O)C(F)(F)F [AZD4320] + C1CN(CCC1(C(=O)N[C@@H](CCO)C2=CC=C(C=C2)Cl)N)C3=NC=NC4=C3C=CN4 [Capivasertib] (first compound max 1 µM, 7x7, partner max 3 µM) | 0.851 | 0.732 | 0.156 | 0.244 | 0.528 | 0.991 | 0.418 | 0.404 | 0.491 | 0.147 | 0.873 | 1 | 0.158 | 0.244 | 0.279 | 0.51 | 0.575 | 0.497 | 0.305 | 0.153
5 | CN(CCO)CC[C@H](CSc1ccccc1)Nc1ccc(S(=O)(=O)NC(=O)c2ccc(N3CCC([C@@H](O)c4ccccc4-c4ccc(Cl)cc4)CC3)cc2)cc1S(=O)(=O)C(F)(F)F [AZD4320] + Cn1cnc2c(F)c(Nc3ccc(Br)cc3Cl)c(C(=O)NOCCO)cc21 [Selumetinib] (first compound max 1 µM, 7x7, partner max 3 µM) | 1 | 0.914 | 0.7 | 0.619 | 0.526 | 1 | 0.284 | 0.418 | 0.847 | 0.971 | 0.979 | 0.959 | 0.212 | 0.508 | 0.402 | 1 | 0.468 | 0.842 | 0.924 | 0.35
6 | Cc1c2c(nn1C)CSCc1cc(n(C)n1)CSc1cc(c3ccccc3c1)OCCCc1c(C(=O)O)n(C)c3c-2c(Cl)ccc13 [AZD5991] + C[C@@H]1COCCN1C2=NC(=NC(=C2)C3(CC3)[S@](=N)(=O)C)C4=C5C=CNC5=NC=C4 [AZD6738] (first compound max 1 µM, 7x7, partner max 10 µM) | 0.921 | 0.739 | 0.26 | 0.74 | 0.88 | 0.91 | 0.735 | 0.813 | 0.591 | 0.92 | 1 | 1 | 0.679 | 0.612 | 0.776 | 0.995 | 0.47 | 0.506 | 0.453 | 0.416
